Target: T1, Recombinant human Syk (GST-Syk kinase fusion protein) (Homo sapiens, UniProt P43405)
T1 construct: made in house
Assay: Syk Kinase Test (Kinase Glo Luminescence Kinase test)
Format: biochemical
Conditions: 1 μM test substance; negative control (no kinase) = 100% inhibition, positive control (no test substance) = 0% inhibition
Protocol: The catalytic activity of the GST-Syk kinase fusion protein was determined using the Kinase Glo® Luminescence Kinase test of Messrs Promega. In this homogeneous test the amount of ATP remaining after the kinase reaction has been carried out is quantified by a luciferin-luciferase reaction using luminescence. The luminescence signal obtained correlates with the amount of ATP still present and thus correlates inversely with the activity of the protein kinase.
The test substances were dissolved in 100% DMSO at a concentration of 10 mM and diluted in DMSO to a concentration of 1 mM. […] GST-Syk was diluted to 6.0 nM in the test buffer and 10 μl of this dilution were used in the kinase test (final concentration of Syk=4 nM in a total volume of 15 μl).
Positive controls are the reaction mixtures that contain no test substance; negative controls are reaction mixtures that contain no kinase.
After 60 minutes, 10 μl Kinase-Glo® solution (Promega, Cat. # V6712) (heated to ambient temperature) are added to each well and incubation is continued for a further 15 minutes at ambient temperature.
The output file of the “MicroBeta TRILUX” is a text file that contains the well number and measurements obtained. […] Then from this the % inherent value for the measurement of each substance concentration was calculated using an “MS-Excel-VB macro”. […] The IC50 values were calculated from the % inhibition values using “GraphPadPrism” software (Version 5) (GraphPad Software Inc.).

Row | SMILES | % INHB SYK at 1 μM
1 | NC(=O)C1CCN(c2nc(-c3ccc(N4CCOCC4)cc3)cc3ncccc23)C1 (stereo not shown) [Example 107, 1-[7-(4-morpholin-4-yl-phenyl)-[1,6]naphthyridin-5-yl]-pyrrolidine-3-carboxylic acid amide] | 95.3%
2 | CCc1nc(-c2ccc(N3CCOCC3)cc2)cc2ncccc12 [Example 140, (4-(5-ethyl-[1,6]naphthyridin-7-yl)phenyl)morpholine] | 43.3%
3 | CCOc1nc(-c2ccc(N3CCOCC3)cc2)cc2ncccc12 [Example 79, 5-Ethoxy-7-(4-morpholin-4-yl-phenyl)-[1,6]naphthyridine] | 82.9%
4 | CN[C@H]1CC[C@@H](Nc2nc(-c3ccc(N4CCOCC4)cc3)cc3ncccc23)CC1 [Example 9, N-methyl-N′-[7-(4-morpholin-4-yl-phenyl)-[1,6]naphthyridin-5-yl]-cyclohexane-1,4-diamine] | 86.7%
5 | Cc1cc(-c2cc3ncccc3c(OC[C@H]3CCCNC3)n2)ccc1N1CCOCC1 [Example 66, (S)-4-(2-methyl-4-(5-(piperidine-3-ylmethoxy)-[1,6]naphthyridin-7-yl)phenyl)morpholine] | 102.8%
6 | CCNC(=O)NC1CN(c2nc(-c3ccc(N4CCN(C)CC4)cc3)cc3ncccc23)C1 [Example 92, 1-ethyl-3-(1-{7-[4-(4-methyl-piperazin-1-yl)-phenyl]-[1,6]naphthyridin-5-yl}-azetidin-3-yl)-urea] | 77.3%
7 | OCC#Cc1nc(-c2ccc(N3CCOCC3)cc2)cc2ncccc12 [Example 82, 3-[7-(4-morpholin-4-yl-phenyl)-[1,6]naphthyridin-5-yl]-prop-2-yn-1-ol] | 87.1%
8 | O[C@H]1CC[C@@H](Nc2nc(-c3ccc(N4CCOCC4)cc3)cc3ncccc23)CC1 [Example 62, 4-[7-(4-morpholin-4-yl-phenyl)-[1,6]naphthyridin-5-ylamino]-cyclohexanol] | 76.8%
9 | C#Cc1nc(-c2ccc(N3CCOCC3)cc2)cc2ncccc12 [Example 142, (4-(5-ethynyl-[1,6]naphthyridin-7-yl)phenyl)morpholine] | 70.3%
10 | c1ccc(-c2nc(-c3ccc(N4CCOCC4)cc3)cc3ncccc23)cc1 [Example 132, (4-(5-phenyl-1,6-naphthyridin-7-yl)phenyl)morpholine] | 55.2%
11 | CC(=O)N[C@H]1CC[C@@H](Nc2nc(-c3ccc(N4CCOCC4)cc3)cc3ncccc23)CC1 [Example 113, N-{4-[7-(4-morpholin-4-yl-phenyl)-[1,6]naphthyridin-5-ylamino]-cyclohexyl}-acetamide] | 94.7%
12 | NC(=O)N1CCN(c2nc(-c3ccc(N4CCOCC4)cc3)cc3ncccc23)CC1 [Example 98, 4-[7-(4-morpholin-4-yl-phenyl)-[1,6]naphthyridin-5-yl]-piperazine-1-carboxylic acid amide] | 86.8%
13 | c1cnc2cc(-c3ccc(N4CCOCC4)cc3)nc(Nc3ccc4cn[nH]c4c3)c2c1 [Example 1, 5-[(1H-indazol-6-yl)amino]-7-(4-morpholinophenyl)-[1,6]naphthyridine] | 82.0%
14 | OCCCCOc1nc(-c2ccc(N3CCOCC3)cc2)cc2ncccc12 [Example 4, 4-[7-(4-morpholinophenyl)-[1,6]naphthyridin-5-yloxy]-butan-1-ol] | 94.4%
15 | NC(=O)c1cccnc1Nc1nc(-c2ccc(N3CCOCC3)cc2)cc2ncccc12 [Example 2, 2-[7-(4-morpholin-4-yl-phenyl)-[1,6]naphthyridin-5-ylamino]-nicotinamide] | 72.6%
16 | c1cnc2cc(-c3ccc(N4CCOCC4)cc3)nc(NCC3CNCCO3)c2c1 (stereo not shown) [Example 63] | 85.4%
17 | CCNC(=O)N1CCCC1CNc1nc(-c2ccc(N3CCN(C)CC3)cc2)cc2ncccc12 (stereo not shown) [Example 93, 2-({7-[4-(4-methyl-piperazin-1-yl)-phenyl]-[1,6]naphthyridin-5-ylamino}-methyl)-pyrrolidin-1-carboxylic acid ethylamide] | 91.5%
18 | COc1cc(-c2cc3ncccc3c(NC[C@@H]3CCNC3)n2)ccc1N1CCOCC1 [Example 10] | 98.6%
19 | CNc1nc(-c2ccc(N3CCOCC3)cc2)cc2ncccc12 [Example 3] | 101.8%
